Measurements as given in patent US7662812B2, “Diazabicyclic aryl derivatives and their use as chinolinergic ligands at nicotinic acetylcholine receptors” (Neurosearch A/S, priority 2005, dated 2010).

Target: T1, α7-subtype of nicotinic receptors (Rattus norvegicus, UniProt Q05941)
T1 construct: Cerebral cortices from male Wistar rats (150-250 g) are homogenised; from tissue; host or cells: rat cerebral cortex membrane homogenate
Assay: In vitro inhibition of 3H-α-bungarotoxine binding in rat brain
Settings: rat cerebral cortex homogenate, 3H-α-bungarotoxine 2 nM, 2 hours at 37° C.

T1 sequence (Q05941 23-502): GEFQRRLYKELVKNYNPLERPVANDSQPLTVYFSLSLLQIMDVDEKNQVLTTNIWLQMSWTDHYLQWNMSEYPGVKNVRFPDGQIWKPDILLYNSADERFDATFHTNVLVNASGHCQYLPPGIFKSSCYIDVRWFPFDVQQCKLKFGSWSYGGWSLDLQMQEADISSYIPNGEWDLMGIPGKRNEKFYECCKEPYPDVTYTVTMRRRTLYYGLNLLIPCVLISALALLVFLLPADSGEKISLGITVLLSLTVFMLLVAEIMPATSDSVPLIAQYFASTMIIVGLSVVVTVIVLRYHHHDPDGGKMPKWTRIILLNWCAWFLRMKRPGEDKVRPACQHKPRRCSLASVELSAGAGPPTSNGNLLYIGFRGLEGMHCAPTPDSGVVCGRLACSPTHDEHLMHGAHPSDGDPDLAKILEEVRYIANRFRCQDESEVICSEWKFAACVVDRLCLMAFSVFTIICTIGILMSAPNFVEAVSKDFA

Compound: CN1C2CCC1CN(c1ccc(C#Cc3ccccc3)nn1)C2 [Compound B1, 8-Methyl-3-(6-phenylethynyl-pyridazin-3-yl)-3,8-diaza-bicyclo[3.2.1]octane]
- IC50: 470 nM
